One molecule from US20140234227A1, “FOAM FORMULATIONS” (OTIC PHARMA LTD, priority 2011, published 2014) can be followed below.

Counter-ions that a name gives are not always drawn.

What all share (assay): Antibiotics-Microbial Assay - Zone of Growth Inhibition
Holding throughout (assay type): cell-based

The subject of one test is E. Coli (ATCC No. 8739). The settings on record: LB-agar, 24 hrs at 37° C. As for the experimental part: (§1) In this assay the diameter (halo) of bacterial growth inhibition around filters soaked with a test item was measured and compared to a standard solution of antibiotic. For this end, sterile Microbiological cotton swabs were soaked with cultures of E. Coli (ATCC No. 8739), S. aureus (ATCC No. 6538) or of Pseudomonas aeruginosa (ATCC No. 9027) and evenly spread on top of LB-agar plates. Filters soaked with the tested formulation were placed on top of the plates and the plates were further incubated for 24 hrs. The diameter (halo) of growth inhibition around each filter was measured after 24 hrs of incubation at 37° C. A solution that contained the same concentration of Ciprofloxacin Hydrochloride (0.35%) as in the formulation tested was used as a control.

Test [1] deals with S. aureus (ATCC No. 6538). The settings on record: Staph. Aureus, LB-agar, 24 hrs at 37° C. As for the experimental part: as §1
Test [2] has as its system Pseudomonas aeruginosa (ATCC No. 9027). The note with it: LB-agar, 24 hrs at 37° C. As for the experimental part: as §1

In the case of `O=C(O)c1cn(C2CC2)c2cc(N3CCNCC3)c(F)cc2c1=O` [Ciprofloxacin HCl solution (0.35%), monohydrochloride monohydrate salt of 1-cyclopropyl-6-fluoro-1,4-dihydro-4-oxo-7-(1-piperazinyl)-3-quinolinecarboxylic acid], the “diameter of growth inhibition” value is given as 3.6 cm in the test on E. Coli (ATCC No. 8739), 4.7 cm in test [1] and 4.85 cm in test [2].
